The record followed here is patent US20240208964A1, “PYRIDOPYRIMIDINES AND METHODS OF THEIR USE” (PYRIDOPYRIMIDINES AND METHODS OF THEIR USE, priority 2020, published 2024).

Broadly, the IC50 is the concentration that inhibits the measured activity by half.

Sequence of full-length human PIKFYVE (GST-PIKFYVE) (Q9Y2I7 whole entry S696N/L932S/Q995L/T998S/S1033A/Q1183K, the tested form may be a part): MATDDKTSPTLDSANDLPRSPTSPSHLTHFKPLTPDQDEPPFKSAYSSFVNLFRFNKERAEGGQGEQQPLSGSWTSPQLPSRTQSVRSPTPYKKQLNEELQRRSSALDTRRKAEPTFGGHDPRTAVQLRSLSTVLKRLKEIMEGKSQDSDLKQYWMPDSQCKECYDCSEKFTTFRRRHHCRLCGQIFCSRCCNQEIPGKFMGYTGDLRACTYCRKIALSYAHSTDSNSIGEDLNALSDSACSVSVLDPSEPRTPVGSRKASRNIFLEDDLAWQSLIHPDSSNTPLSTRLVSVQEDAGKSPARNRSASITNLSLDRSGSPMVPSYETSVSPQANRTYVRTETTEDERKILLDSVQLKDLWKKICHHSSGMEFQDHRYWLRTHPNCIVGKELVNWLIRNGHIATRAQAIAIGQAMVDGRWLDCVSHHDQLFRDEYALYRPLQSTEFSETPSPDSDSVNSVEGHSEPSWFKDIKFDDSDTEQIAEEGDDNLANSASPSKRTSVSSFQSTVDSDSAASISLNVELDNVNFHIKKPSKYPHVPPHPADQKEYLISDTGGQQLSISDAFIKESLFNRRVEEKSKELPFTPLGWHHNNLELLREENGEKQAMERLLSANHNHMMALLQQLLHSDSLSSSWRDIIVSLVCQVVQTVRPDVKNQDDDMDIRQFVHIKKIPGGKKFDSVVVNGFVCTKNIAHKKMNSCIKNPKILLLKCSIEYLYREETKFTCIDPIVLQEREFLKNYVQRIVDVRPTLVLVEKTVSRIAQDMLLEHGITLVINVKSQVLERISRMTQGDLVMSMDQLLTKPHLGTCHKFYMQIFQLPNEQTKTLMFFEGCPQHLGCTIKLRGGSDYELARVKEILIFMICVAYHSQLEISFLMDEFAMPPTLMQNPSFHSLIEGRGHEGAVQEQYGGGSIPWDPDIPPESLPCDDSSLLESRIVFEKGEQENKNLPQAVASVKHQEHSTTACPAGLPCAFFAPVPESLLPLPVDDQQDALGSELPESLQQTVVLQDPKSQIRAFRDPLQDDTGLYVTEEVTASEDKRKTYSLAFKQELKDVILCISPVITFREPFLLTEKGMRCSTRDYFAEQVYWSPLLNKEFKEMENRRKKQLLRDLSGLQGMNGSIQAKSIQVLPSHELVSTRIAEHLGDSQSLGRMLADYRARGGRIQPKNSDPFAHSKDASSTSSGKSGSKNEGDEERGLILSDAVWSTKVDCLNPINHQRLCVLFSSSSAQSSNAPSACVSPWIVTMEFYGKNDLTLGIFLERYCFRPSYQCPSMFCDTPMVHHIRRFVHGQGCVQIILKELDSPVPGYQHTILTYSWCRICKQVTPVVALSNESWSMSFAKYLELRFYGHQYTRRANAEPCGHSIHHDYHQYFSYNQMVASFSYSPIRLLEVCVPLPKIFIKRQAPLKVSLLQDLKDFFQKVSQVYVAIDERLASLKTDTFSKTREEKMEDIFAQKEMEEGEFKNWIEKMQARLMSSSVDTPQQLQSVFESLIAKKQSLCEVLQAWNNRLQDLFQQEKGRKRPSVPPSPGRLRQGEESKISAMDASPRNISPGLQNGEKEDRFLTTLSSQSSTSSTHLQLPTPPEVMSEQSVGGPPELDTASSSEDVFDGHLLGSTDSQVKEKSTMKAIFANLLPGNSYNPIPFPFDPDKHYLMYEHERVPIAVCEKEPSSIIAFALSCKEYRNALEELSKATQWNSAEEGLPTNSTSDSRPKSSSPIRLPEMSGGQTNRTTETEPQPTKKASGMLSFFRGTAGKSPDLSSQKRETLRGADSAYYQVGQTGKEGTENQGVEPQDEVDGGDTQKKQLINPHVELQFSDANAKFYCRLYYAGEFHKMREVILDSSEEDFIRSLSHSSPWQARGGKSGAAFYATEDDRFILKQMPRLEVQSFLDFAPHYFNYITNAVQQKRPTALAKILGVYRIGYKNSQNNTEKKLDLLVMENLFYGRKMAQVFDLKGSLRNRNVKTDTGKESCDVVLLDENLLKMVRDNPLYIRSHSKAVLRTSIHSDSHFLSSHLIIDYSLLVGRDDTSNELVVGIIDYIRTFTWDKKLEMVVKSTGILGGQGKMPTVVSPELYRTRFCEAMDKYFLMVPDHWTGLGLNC

For one assay, the target named is full-length human PIKFYVE (GST-PIKFYVE) (Homo sapiens (Human), UniProt Q9Y2I7, L932S/Q1183K/Q995L/S1033A/S696N/T998S). Put plainly: PIKfyve biochemical assay (ADP-Glo Kinase assay, Carna Biosciences). As to conditions: ADP-Glo, full-length human PIKFYVE; read-out: hPIKfyve IC50. The text has this:
PIKfyve Biochemical Assay. The biochemical PIKFyve inhibition assays were run by Carna Biosciences according to proprietary methodology based on the Promega ADP-Glo™ Kinase assay. A full-length human PIKFYVE [1-2098(end) amino acids and S696N, L932S, Q995L, T998S, S1033A and Q1183K of the protein having the sequence set forth in NCBI Reference Sequence No. NP_055855.2] was expressed as N-terminal GST-fusion protein (265 kDa) using baculovirus expression system. GST-PIKFYVE was purified by using glutathione sepharose chromatography and used in an ADP-Glo™ Kinase assay (Promega). Reactions were set up by adding the test compound solution, substrate solution, ATP solution and kinase solution, each at 4× final concentrations. Reactions were prepared with assay buffer (50 mM MOPS, 1 mM DTT, pH7.2), mixed, and incubated in black 384 well polystyrene plates for 1 hour at room temperature. ADP-Glo™ reagent was then added for 40 minutes, followed by kinase detection reagent for an additional 40 minutes. The kinase activity was evaluated by detecting relative light units on a luminescence plate reader. Samples were run in duplicate from 10 μM to 3 nM. […] IC50 values were calculated from concentration vs % inhibition curves by fitting to a four-parameter logistic curve.
The biochemical PIKFyve inhibition assays were run by Carna Biosciences according to proprietary methodology based on the Promega ADP-Glo™ Kinase assay. A full-length human PIKFYVE [1-2098(end) amino acids and S696N, L932S, Q995L, T998S, S1033A and Q1183K of accession number NP_055855.2] was expressed as N-terminal GST-fusion protein (265 kDa) using baculovirus expression system. GST-PIKFYVE was purified by using glutathione sepharose chromatography and used in an ADP-Glo™ Kinase assay (Promega).
Reactions were set up by adding the test compound solution, substrate solution, ATP solution and kinase solution, each at 4× final concentrations. Reactions were prepared with assay buffer (50 mM MOPS, 1 mM DTT, pH7.2), mixed, and incubated in black 384 well polystyrene plates for 1 hour at room temperature. ADP-Glo™ reagent was then added for 40 minutes, followed by kinase detection reagent for an additional 40 minutes. The kinase activity was evaluated by detecting relative light units on a luminescence plate reader. Samples were run in duplicate from 10 uM to 3 nM. […] IC50 values were calculated from concentration vs % inhibition curves by fitting to a four-parameter logistic curve.
In general terms: ADP-Glo turns the ADP formed in a reaction into a luminescent signal.
On to `c1cnc2c(N3CCOCC3)nc(-c3ccnc(N4CCNCC4)n3)nc2c1` [compound 34, 4-[2-(2-piperazin-1-ylpyrimidin-4-yl)pyrido[3,2-d]pyrimidin-4-yl]morpholine], for which the IC50 lay in the range of 1 to 10 µM.

Turning to `CC(C)(C)OC(=O)N1CCC(c2ccn(-c3nc(N4CCOCC4)c4ncccc4n3)n2)CC1` [compound 5, tert-butyl 4-[1-(4-morpholinopyrido[3,2-d]pyrimidin-2-yl)pyrazol-3-yl]piperidine-1-carboxylate], the IC50 was 1 to 10 µM.

In the case of `Fc1cccc(-c2nccc(-c3nc(N4CCOCC4)c4ncc(Cc5cccnc5)cc4n3)n2)c1` [compound 86], the IC50 lay within 0.1 to 1 µM.

As for `c1cnc2c(N3CCOCC3)nc(-n3ccc(-c4cncnc4)n3)nc2c1` [compound 2, 4-[2-(3-pyrimidin-5-ylpyrazol-1-yl)pyrido[3,2-d]pyrimidin-4-yl]morpholine], the IC50 was in the range of 1 to 10 µM.

For the compound `O=C1N(c2ccccc2)CCN1c1nc(N2CCOCC2)c2ncccc2n1` [compound 29, 1-(4-morpholinopyrido[3,2-d]pyrimidin-2-yl)-3-phenyl-imidazolidin-2-one], the half-inhibitory concentration (IC50) is 1 to 10 µM.

Regarding `c1cnc2c(N3CCOCC3)nc(-n3ccc(C4CCCNC4)n3)nc2c1` (stereo not drawn) [compound 43, 4-(2-(3-(piperidin-3-yl)-1H-pyrazol-1-yl)pyrido[3,2-d]pyrimidin-4-yl)morpholine], the IC50 was in the range of 1 to 10 µM.

Regarding `O=C1N(c2cccc(F)c2)CCN1c1nc(N2CCOCC2)c2ncccc2n1` [compound 28, 1-(3-fluorophenyl)-3-(4-morpholinopyrido[3,2-d]pyrimidin-2-yl)imidazolidin-2-one], the IC50 lay in the range of 1 to 10 µM.

Regarding `Cc1cccc(CCNc2nc(N3CCOCC3)c3ncc(C(O)c4cccnc4)cc3n2)c1` (stereo not drawn) [compound 76], the IC50 is 0.1 to 1 µM.

Take `c1ccc(-c2nccc(-c3nc(N4CCOCC4)c4ncc(Cc5cccnc5)cc4n3)n2)cc1` [compound 85]: the IC50 is 0.1 to 1 µM.

On to `Cc1cccc(CCNc2nc(N3CCOCC3)c3ncccc3n2)c1` [compound 23, N-(3-methylphenethyl)-4-morpholinopyrido[3,2-d]pyrimidin-2-amine], for which the IC50 lay within 0.1 to 1 µM.

Turning to `O=C1N(c2nc(N3CCOCC3)c3ncccc3n2)CCN1C1CCCC1` [compound 30, 1-cyclopentyl-3-(4-morpholinopyrido[3,2-d]pyrimidin-2-yl)imidazolidin-2-one], the IC50 fell in the range of 1 to 10 µM.

As to `CN1CCCC(c2ccn(-c3nc(N4CCOCC4)c4ncccc4n3)n2)C1` (stereo not drawn) [compound 44, 4-(2-(3-(1-methylpiperidin-3-yl)-1H-pyrazol-1-yl)pyrido[3,2-d]pyrimidin-4-yl)morpholine], the IC50 lay in the range of 1 to 10 µM.

As to `CC(C)(C)OC(=O)N1CCCC(c2ccn(-c3nc(N4CCOCC4)c4ncccc4n3)n2)C1` (stereo not drawn) [compound 6, tert-butyl 3-(1-(4-morpholinopyrido[3,2-d]pyrimidin-2-yl)-1H-pyrazol-3-yl)piperidine-1-carboxylate], the concentration for half-maximal inhibition (IC50) lay within 1 to 10 µM.

Consider `c1cnc2c(N3CCOCC3)nc(-c3ccnc(C4CCOCC4)n3)nc2c1` [compound 35, 4-[2-(2-tetrahydropyran-4-ylpyrimidin-4-yl)pyrido[3,2-d]pyrimidin-4-yl]morpholine], for which the IC50 lay in the range of 1 to 10 µM.

As to `Fc1cccc(Nc2nc(N3CCOCC3)c3ncc(Cc4cccnc4)cc3n2)c1` [compound 83], the concentration for half-maximal inhibition (IC50) was 1 to 10 µM.

In the case of `c1cnc2c(N3CCOCC3)nc(-n3ccc(-c4ccncc4)n3)nc2c1` [compound 10, 4-(2-(3-(pyridin-4-yl)-1H-pyrazol-1-yl)pyrido[3,2-d]pyrimidin-4-yl)morpholine], the IC50 lay within 0.1 to 1 µM.

For the compound `c1cncc(Cc2nc(N3CCOCC3)c3ncccc3n2)c1` [compound 72], the half-inhibitory concentration (IC50) fell in the range of 0.01 to 0.1 µM.

As for `CC(C)c1ccn(-c2nc(N3CCOCC3)c3ncccc3n2)n1` [compound 9, 4-(2-(3-isopropyl-1H-pyrazol-1-yl)pyrido[3,2-d]pyrimidin-4-yl)morpholine], the IC50 is 1 to 10 µM.

Consider `Cn1c(-c2ccccc2)nn(-c2nc(N3CCOCC3)c3ncccc3n2)c1=O` [compound 32, 4-methyl-2-(4-morpholinopyrido[3,2-d]pyrimidin-2-yl)-5-phenyl-1,2,4-triazol-3-one], for which the IC50 was in the range of 1 to 10 µM.

As for `CN1CCC(c2nccc(-c3nc(N4CCOCC4)c4ncccc4n3)n2)CC1` [compound 38, 4-[2-[2-(1-methyl-4-piperidyl)pyrimidin-4-yl]pyrido[3,2-d]pyrimidin-4-yl]morpholine], the IC50 was in the range of 1 to 10 µM.

On to `O=C(c1cccnc1)c1nc(N2CCOCC2)c2ncccc2n1` [compound 73], for which the half-inhibitory concentration (IC50) lay in the range of 0.1 to 1 µM.

Consider `c1ccc2nn(-c3nc(N4CCOCC4)c4ncccc4n3)cc2c1` [compound 7, 4-(2-indazol-2-ylpyrido[3,2-d]pyrimidin-4-yl)morpholine], for which the IC50 was in the range of 0.1 to 1 µM.

For the compound `c1ccc(Oc2nc(N3CCOCC3)c3ncc(-c4ccco4)cc3n2)cc1` [compound 16, 4-(7-(furan-2-yl)-2-phenoxypyrido[3,2-d]pyrimidin-4-yl)morpholine], the IC50 was over 10 µM.

`c1cncc(Oc2nc(N3CCOCC3)c3ncccc3n2)c1` [compound 75]: the IC50 fell in the range of 0.01 to 0.1 µM.

Turning to `c1cnc2c(N3CCOCC3)nc(-c3ccnc(C4CCNCC4)n3)nc2c1` [compound 37, 4-[2-[2-(4-piperidyl)pyrimidin-4-yl]pyrido[3,2-d]pyrimidin-4-yl]morpholine], the IC50 is 1 to 10 µM.

`c1ccc(Nc2nc(N3CCOCC3)c3ncc(-c4ccco4)cc3n2)cc1` [compound 15, 7-(furan-2-yl)-4-morpholino-N-phenylpyrido[3,2-d]pyrimidin-2-amine]: the IC50 was in the range of 0.1 to 1 µM.

Regarding `c1ccc(Nc2nc(N3CCOCC3)c3ncc(C4CCCO4)cc3n2)cc1` (stereo not drawn) [compound 87], the IC50 is 0.1 to 1 µM.

As for `CCn1c(-c2ccccc2)nn(-c2nc(N3CCOCC3)c3ncccc3n2)c1=O` [compound 31, 4-ethyl-2-(4-morpholinopyrido[3,2-d]pyrimidin-2-yl)-5-phenyl-1,2,4-triazol-3-one], the IC50 fell in the range of 1 to 10 µM.

Consider `Cc1cccc(CCNc2nc(N3CCOCC3)c3ncc(Cc4cccnc4)cc3n2)c1` [compound 78], for which the IC50 was 0.1 to 1 µM.

As for `CCc1cnc2c(N3CCOCC3)nc(-n3ccc(-c4ccncc4)n3)nc2c1` [compound 14, 4-(7-Ethyl-2-(3-(pyridin-4-yl)-1H-pyrazol-1-yl)pyrido[3,2-d]pyrimidin-4-yl)morpholine], the IC50 was 1 to 10 µM.

In the case of `c1ccc(-c2ccn(-c3nc(N4CCOCC4)c4ncccc4n3)n2)nc1` [compound 12, 4-(2-(3-(pyridin-2-yl)-1H-pyrazol-1-yl)pyrido[3,2-d]pyrimidin-4-yl)morpholine], the IC50 lay within 0.01 to 0.1 µM.

For `c1cnc2c(N3CCOCC3)nc(-c3ccnc(N4CCOCC4)n3)nc2c1` [compound 51, 4-[4-(4-morpholinopyrido[3,2-d]pyrimidin-2-yl)pyrimidin-2-yl]morpholine], the IC50 was in the range of 1 to 10 µM.

Take `Oc1cc(-c2ccccc2)nn1-c1nc(N2CCOCC2)c2ncccc2n1` [compound 27, 1-(4-morpholinopyrido[3,2-d]pyrimidin-2-yl)-3-phenyl-1H-pyrazol-5-ol]: the half-maximal inhibitory concentration (IC50) was 0.01 to 0.1 µM.

As for `c1ccc(-c2ccn(-c3nc(N4CCOCC4)c4ccncc4n3)n2)cc1` [compound 13], the half-inhibitory concentration (IC50) was in the range of 0.1 to 1 µM.

For the compound `CC(C)(C)OC(=O)N1CCC(c2nccc(-c3nc(N4CCOCC4)c4ncccc4n3)n2)CC1` [compound 33, tert-butyl 4-[4-(4-morpholinopyrido[3,2-d]pyrimidin-2-yl)pyrimidin-2-yl]piperidine-1-carboxylate], the IC50 fell in the range of 1 to 10 µM.

For the compound `c1cnc2c(N3CCOCC3)nc(-n3ccc(C4CCOCC4)n3)nc2c1` [compound 45, 4-(2-(3-(tetrahydro-2H-pyran-4-yl)-1H-pyrazol-1-yl)pyrido[3,2-d]pyrimidin-4-yl)morpholine], the IC50 lay within 1 to 10 µM.

With `c1cncc(-c2ccn(-c3nc(N4CCOCC4)c4ncccc4n3)n2)c1` [compound 11, 4-(2-(3-(pyridin-3-yl)-1H-pyrazol-1-yl)pyrido[3,2-d]pyrimidin-4-yl)morpholine], the IC50 lay within 0.1 to 1 µM.

For `c1ccc(-c2ccn(-c3nc(N4CCOCC4)c4ncc(C5CCCOC5)cc4n3)n2)cc1` (stereo not drawn) [compound 19, 4-(2-(3-Phenyl-1H-pyrazol-1-yl)-7-(tetrahydro-2H-pyran-3-yl)pyrido[3,2-d]pyrimidin-4-yl)morpholine], the IC50 fell in the range of 0.01 to 0.1 µM.

Staying with this assay, now noted: values plotted in FIG. 7; read-out: PIKFYVE Biochemistry (IC50).
With `c1ccc(-c2nc(-c3cc(N4CCOCC4)nc(OCc4ccncc4)n3)no2)cc1`, the IC50 was over 10 µM.
